Legend:
BRD4 BD1 = biological target: T1, BRD4 BD1 (Homo sapiens, UniProt O60885); test: AlphaScreen binding assay, BRD4 Bromodomain 1
T1 construct: made in house
Procedure, shortened: (§1)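 Compound dilution series were mixed with His-tagged BRD4 bromodomain and biotinylated tetra-acetylated H4 (1-21) peptide at pH 7.3 (BD1 and peptide at 50 nM, BD2 and peptide at 100 nM). Donor and acceptor beads were then added, and plates were equilibrated at least 1 h before reading. IC50 values were fitted with a four-parameter logistic model.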

MV4-11 cells = test: Oncology cell growth assay (3-day proliferation, CellTiter-Glo); type: cell-based; conditions: Homo sapiens, MV4-11, 72 h, AML cell line MV4-11, 72 hours, compounds grouped by IC50 range, read-out: MV4-11 IC50 (inhibition of proliferation, gIC50)
Procedure, shortened: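 A 3-day proliferation test used MV4-11 cells seeded at 3000 per well with eight compound concentrations (10 μM top, 3-fold dilution) at 37° C in 5% CO2. CellTiter-Glo luminescence defined viable cell signal. A four-parameter logistic curve against DMSO and background wells gave the gIC50.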

BRD4 BD2 = biological target: T2, BRD4 BD2 (Homo sapiens, UniProt O60885); test: AlphaScreen binding assay, BRD4 Bromodomain 2
T2 construct: made in house
Procedure, shortened: as §1

| IC50 (BRD4 BD1) | IC50 (MV4-11 cells) | IC50 (BRD4 BD2) | Compound |
| --- | --- | --- | --- |
| 1000 to 10000 nM | > 500 nM | 50 to 500 nM | CC(=O)N1c2ccc(-c3ccc(F)c(S(C)(=O)=O)c3)cc2N(C(=O)C2CC2)C[C@@H]1C [Example I-1098] |
| 1000 to 10000 nM | > 500 nM | 50 to 500 nM | CC(=O)N1c2ccc(-c3ccc(F)c(S(C)(=O)=O)c3)cc2N(C(=O)C2CCC2)C[C@@H]1C [Example I-1099] |
| 1000 to 10000 nM | > 500 nM | 50 to 500 nM | CCOC(=O)N1C[C@H](C)N(C(C)=O)c2ccc(-c3ccc(F)c(S(C)(=O)=O)c3)cc21 [Example I-1100] |
| 1000 to 10000 nM | > 500 nM | 50 to 500 nM | CC(=O)N1c2ccc(-c3ccc(F)c(S(C)(=O)=O)c3)cc2N(C(=O)OC(C)C)C[C@@H]1C [Example I-1101] |
| 100 to 1000 nM | > 500 nM | 50 to 500 nM | CCOC(=O)N1C[C@H](C)N(C(C)=O)c2ccc(-c3ccc(OCCS(C)(=O)=O)cc3)cc21 [Example I-1102] |
| 100 to 1000 nM | > 500 nM | 50 to 500 nM | CC(=O)N1c2ccc(-c3ccc(OCCS(C)(=O)=O)cc3)cc2N(C(=O)OC(C)C)C[C@@H]1C [Example I-1103] |
| 1000 to 10000 nM | 100 to 500 nM | 50 to 500 nM | CNS(=O)(=O)c1cccc(-c2ccc3c(c2)N(C(=O)C2CC2)C[C@H](C)N3C(C)=O)c1 [Example I-1104] |
| 1000 to 10000 nM | > 500 nM | 50 to 500 nM | CNS(=O)(=O)c1cccc(-c2ccc3c(c2)N(C(=O)C2CCC2)C[C@H](C)N3C(C)=O)c1 [Example I-1105] |
| 1000 to 10000 nM | 100 to 500 nM | 50 to 500 nM | CCOC(=O)N1C[C@H](C)N(C(C)=O)c2ccc(-c3cccc(S(=O)(=O)NC)c3)cc21 [Example I-1106] |
| 100 to 1000 nM | 100 to 500 nM | 50 to 500 nM | CNS(=O)(=O)c1cccc(-c2ccc3c(c2)N(C(=O)OC(C)C)C[C@H](C)N3C(C)=O)c1 [Example I-1107] |
| 1000 to 10000 nM | 100 to 500 nM | 50 to 500 nM | CC(=O)N1c2ccc(-c3cccc(S(=O)(=O)NCCO)c3)cc2N(C(=O)C2CC2)C[C@@H]1C [Example I-1108] |
| 1000 to 10000 nM | > 500 nM | 50 to 500 nM | CC(=O)N1c2ccc(-c3cccc(S(=O)(=O)NCCO)c3)cc2N(C(=O)C2CCC2)C[C@@H]1C [Example I-1109] |
| 1000 to 10000 nM | 100 to 500 nM | 50 to 500 nM | CCOC(=O)N1C[C@H](C)N(C(C)=O)c2ccc(-c3cccc(S(=O)(=O)NCCO)c3)cc21 [Example I-1110] |
| 100 to 1000 nM | 100 to 500 nM | 50 to 500 nM | CC(=O)N1c2ccc(-c3cccc(S(=O)(=O)NCCO)c3)cc2N(C(=O)OC(C)C)C[C@@H]1C [Example I-1111] |
| 1000 to 10000 nM | 100 to 500 nM | 50 to 500 nM | CCN(CC)S(=O)(=O)c1cc(-c2ccc3c(c2)N(C(=O)C2CC2)C[C@H](C)N3C(C)=O)ccc1OC [Example I-1112] |
| 1000 to 10000 nM | 100 to 500 nM | 50 to 500 nM | CCN(CC)S(=O)(=O)c1cc(-c2ccc3c(c2)N(C(=O)C2CCC2)C[C@H](C)N3C(C)=O)ccc1OC [Example I-1113] |
| 100 to 1000 nM | > 500 nM | 50 to 500 nM | CCOC(=O)N1C[C@H](C)N(C(C)=O)c2ccc(-c3ccc(OC)c(S(=O)(=O)N(CC)CC)c3)cc21 [Example I-1114] |
| 100 to 1000 nM | 100 to 500 nM | 50 to 500 nM | CCN(CC)S(=O)(=O)c1cc(-c2ccc3c(c2)N(C(=O)OC(C)C)C[C@H](C)N3C(C)=O)ccc1OC [Example I-1115] |
| 1000 to 10000 nM | > 500 nM | 50 to 500 nM | CC(=O)N1c2ccc(-c3ccc(S(=O)(=O)n4cccn4)cc3)cc2N(C(=O)C2CCC2)C[C@@H]1C [Example I-1116] |
| 1000 to 10000 nM | > 500 nM | 50 to 500 nM | CCOC(=O)N1C[C@H](C)N(C(C)=O)c2ccc(-c3ccc(S(=O)(=O)n4cccn4)cc3)cc21 [Example I-1117] |
| 1000 to 10000 nM | > 500 nM | > 500 nM | CC(=O)N1c2ccc(-c3ccc(S(=O)(=O)n4cccn4)cc3)cc2N(C(=O)OC(C)C)C[C@@H]1C [Example I-1118] |
| 1000 to 10000 nM | 100 to 500 nM | 50 to 500 nM | CNS(=O)(=O)c1ccc(-c2ccc3c(c2)N(C(=O)C2CC2)C[C@H](C)N3C(C)=O)cc1 [Example I-1119] |
| 1000 to 10000 nM | 100 to 500 nM | 50 to 500 nM | CNS(=O)(=O)c1ccc(-c2ccc3c(c2)N(C(=O)C2CCC2)C[C@H](C)N3C(C)=O)cc1 [Example I-1120] |
| 1000 to 10000 nM | 100 to 500 nM | 50 to 500 nM | CCOC(=O)N1C[C@H](C)N(C(C)=O)c2ccc(-c3ccc(S(=O)(=O)NC)cc3)cc21 [Example I-1121] |

| IC50 (BRD4 BD1) | IC50 (MV4-11 cells) | IC50 (BRD4 BD2) | Compound |
| --- | --- | --- | --- |
| 100 to 1000 nM | 100 to 500 nM | 50 to 500 nM | CNS(=O)(=O)c1ccc(-c2ccc3c(c2)N(C(=O)OC(C)C)C[C@H](C)N3C(C)=O)cc1 [Example I-1122] |
| 1000 to 10000 nM | 100 to 500 nM | 50 to 500 nM | CC(=O)N1c2ccc(-c3ccc(S(=O)(=O)N(C)C)cc3)cc2N(C(=O)C2CC2)C[C@@H]1C [Example I-1123] |
| 1000 to 10000 nM | 100 to 500 nM | 50 to 500 nM | CC(=O)N1c2ccc(-c3ccc(S(=O)(=O)N(C)C)cc3)cc2N(C(=O)C2CCC2)C[C@@H]1C [Example I-1124] |
| 1000 to 10000 nM | 100 to 500 nM | 50 to 500 nM | CCOC(=O)N1C[C@H](C)N(C(C)=O)c2ccc(-c3ccc(S(=O)(=O)N(C)C)cc3)cc21 [Example I-1125] |
| 1000 to 10000 nM | 100 to 500 nM | 50 to 500 nM | CC(=O)N1c2ccc(-c3ccc(S(=O)(=O)N(C)C)cc3)cc2N(C(=O)OC(C)C)C[C@@H]1C [Example I-1126] |
| 1000 to 10000 nM | 100 to 500 nM | 50 to 500 nM | CC(=O)N1c2ccc(-c3ccc(S(=O)(=O)NC(C)(C)C)cc3)cc2N(C(=O)C2CC2)C[C@@H]1C [Example I-1127] |
| 1000 to 10000 nM | 100 to 500 nM | 50 to 500 nM | CC(=O)N1c2ccc(-c3ccc(S(=O)(=O)NC(C)(C)C)cc3)cc2N(C(=O)C2CCC2)C[C@@H]1C [Example I-1128] |
| 1000 to 10000 nM | 100 to 500 nM | 50 to 500 nM | CCOC(=O)N1C[C@H](C)N(C(C)=O)c2ccc(-c3ccc(S(=O)(=O)NC(C)(C)C)cc3)cc21 [Example I-1129] |
| 100 to 1000 nM | 100 to 500 nM | 50 to 500 nM | CC(=O)N1c2ccc(-c3ccc(S(=O)(=O)NC(C)(C)C)cc3)cc2N(C(=O)OC(C)C)C[C@@H]1C [Example I-1130] |
| 1000 to 10000 nM | 100 to 500 nM | 50 to 500 nM | CC(=O)N1c2ccc(-c3ccc(N4CCCC4=O)cc3)cc2N(C(=O)C2CC2)C[C@@H]1C [Example I-1131] |
| 1000 to 10000 nM | 100 to 500 nM | 50 to 500 nM | CC(=O)N1c2ccc(-c3ccc(N4CCCC4=O)cc3)cc2N(C(=O)C2CCC2)C[C@@H]1C [Example I-1132] |
| 1000 to 10000 nM | 100 to 500 nM | 50 to 500 nM | CCOC(=O)N1C[C@H](C)N(C(C)=O)c2ccc(-c3ccc(N4CCCC4=O)cc3)cc21 [Example I-1133] |
| 100 to 1000 nM | 100 to 500 nM | 50 to 500 nM | CC(=O)N1c2ccc(-c3ccc(N4CCCC4=O)cc3)cc2N(C(=O)OC(C)C)C[C@@H]1C [Example I-1134] |
| 100 to 1000 nM | 100 to 500 nM | 50 to 500 nM | CCS(=O)(=O)Nc1ccc(-c2ccc3c(c2)N(C(=O)C2CC2)C[C@H](C)N3C(C)=O)cc1 [Example I-1135] |
| 100 to 1000 nM | 100 to 500 nM | 50 to 500 nM | CCS(=O)(=O)Nc1ccc(-c2ccc3c(c2)N(C(=O)C2CCC2)C[C@H](C)N3C(C)=O)cc1 [Example I-1136] |
| 100 to 1000 nM | 100 to 500 nM | 50 to 500 nM | CCNS(=O)(=O)c1ccc(-c2ccc3c(c2)N(C(=O)OCC)C[C@H](C)N3C(C)=O)cc1 [Example I-1137] |
| 100 to 1000 nM | 100 to 500 nM | 50 to 500 nM | CCS(=O)(=O)Nc1ccc(-c2ccc3c(c2)N(C(=O)OC(C)C)C[C@H](C)N3C(C)=O)cc1 [Example I-1138] |
| 1000 to 10000 nM | 100 to 500 nM | 50 to 500 nM | COc1ccc(-c2ccc3c(c2)N(C(=O)C2CC2)C[C@H](C)N3C(C)=O)cc1NS(C)(=O)=O [Example I-1139] |
| 1000 to 10000 nM | 100 to 500 nM | 50 to 500 nM | COc1ccc(-c2ccc3c(c2)N(C(=O)C2CCC2)C[C@H](C)N3C(C)=O)cc1NS(C)(=O)=O [Example I-1140] |
| 100 to 1000 nM | 100 to 500 nM | 50 to 500 nM | CCOC(=O)N1C[C@H](C)N(C(C)=O)c2ccc(-c3ccc(OC)c(NS(C)(=O)=O)c3)cc21 [Example I-1141] |
| 100 to 1000 nM | 100 to 500 nM | 50 to 500 nM | COc1ccc(-c2ccc3c(c2)N(C(=O)OC(C)C)C[C@H](C)N3C(C)=O)cc1NS(C)(=O)=O [Example I-1142] |
| 1000 to 10000 nM | 100 to 500 nM | 50 to 500 nM | CC(=O)N1c2ccc(-c3cccc(NS(=O)(=O)N(C)C)c3)cc2N(C(=O)C2CC2)C[C@@H]1C [Example I-1143] |
| 1000 to 10000 nM | 100 to 500 nM | 50 to 500 nM | CC(=O)N1c2ccc(-c3cccc(NS(=O)(=O)N(C)C)c3)cc2N(C(=O)C2CCC2)C[C@@H]1C [Example I-1144] |
| 1000 to 10000 nM | > 500 nM | 50 to 500 nM | CCOC(=O)N1C[C@H](C)N(C(C)=O)c2ccc(-c3cccc(NS(=O)(=O)N(C)C)c3)cc21 [Example I-1145] |
